Assay results published in ChEMBL document CHEMBL3507680, “University of Dundee, Gates Library screen for HepG2 cell viability”.

assay: Human HepG2 cell viability assay in 384 well format; type: toxicity, cell-based; parameters: dose 125 nL, time 70.5 hour; concentration not given beside the values; settings: HepG2 cells, read-out: Inhibition

SMILES	cytotoxicity at 70.5 h
O=C(O)c1cnc(N2CC[C@H](N3CCOCC3)[C@H](CCCO)C2)c(Cl)c1	-7.02%
COc1ccccc1CC1CCCN1C(=O)c1cn[nH]c1C (stereo not given)	-4.05%
Cc1ncc2c(n1)CN(Cc1nnc(-c3occc3C)o1)CC2	4.24%
O=C(CN1CCCCC1Cn1cncn1)NCCOc1ccccc1 (stereo not given)	-1.79%
CCCN(CCOC)C(=O)c1cc(Cn2c(C)nc3ccccc32)[nH]n1	-2.8%
O=C(NC1CCC1)[C@@H]1C[C@@H]2CCN(CCc3ccccc3)C[C@H]2O1	-8.97%
CCC(Nc1nnnn1-c1ccccc1)C(=O)Nc1ccccc1C (stereo not given)	-11%
c1ccc(CCCN2CC[C@H](c3nnc(-c4ccccc4)o3)C2)cc1	-2.93%
Cn1ncnc1CNc1ccccc1C(=O)NC(C)(C)C	-100%
O=C(c1ccncc1)N1CCN(c2ccc(F)cc2Cl)CC1	18.4%
COc1cc(F)c(S(=O)(=O)N2c3ncccc3NC(=O)C2C)cc1OC (stereo not given)	-5.44%
C[C@@H]1CN(C(=O)c2cn(CCN3CCCCC3)nn2)C[C@H](C)O1	-0.236%
Cc1nc(CN(CCS(C)(=O)=O)C(C)(C)C)no1	42.5%
CC(C)c1nnc2n1CCN(Cc1ccc3c(c1)OCCO3)C2	0.93%
Cc1cc(C(=O)N2CCCC3(CN(C)C(=O)O3)C2)c2ccc(F)cc2n1 (stereo not given)	16.1%
CC(C)C(C)NC(=O)Nc1cccn(C)c1=O (stereo not given)	4.29%
CCc1cnc(C(C)NC(=O)N2CCCN(CC(F)F)CC2)s1 (stereo not given)	-4.42%
CC(C)(C)NC(=O)C1CCCCN1Cc1nccn1CC(F)(F)F (stereo not given)	-0.987%
Cc1nn(C)cc1NC(=O)CC1CCN(CCc2ccccc2)CC1	-7.48%
NC(=O)NC(=O)Cn1ccc2sccc2c1=O	-5.03%
Cc1ccc2ncnc(N3CCOCC3c3c(C)nn(C)c3C)c2c1 (stereo not given)	-11.7%
CC(C)(C)c1cc(CN2CCOC(CN)C2)n[nH]1 (stereo not given)	2.01%
Cc1cnc2n(c1=O)C(CC(=O)NCc1ccco1)CS2 (stereo not given)	-0.737%

SMILES	cytotoxicity at 70.5 h
CCN1CCCC(C)(C(=O)NCCc2nnc(C)[nH]2)C1 (stereo not given)	-3.07%
CCOc1ncccc1NC(=O)NCC(O)c1ccccc1OC (stereo not given)	11.2%
CN(C)C(=O)Cc1ccc(NC(=O)c2cn(C)nn2)cc1	-4.9%
O=C(Nc1ccccc1)C1CN(Cc2ccco2)CC12CCOCC2 (stereo not given)	-10.6%
CC(NC(=O)CCS(=O)(=O)C1CCCC1)c1nc(-c2ccccc2)c[nH]1 (stereo not given)	-3.16%
O=C(NCCc1ccncc1)c1cccc(S(=O)(=O)NC2CCOC2)c1 (stereo not given)	5.63%
CC(C)Nc1nc2c(c(N(C)C)n1)CCN(C(=O)c1cc[nH]n1)CC2	-10.4%
Cc1nnc(CSCc2ccc(OCC(F)(F)F)nc2)o1	-4.42%
CN(C)CCOCC1CN(C(=O)c2ccnnc2)Cc2ccnn2C1 (stereo not given)	-14%
COCCN1CCC2(CC1)CC(c1cccnc1)CO2 (stereo not given)	-4.14%
O=C(NCc1cscn1)NC1CCN(c2ncccc2Cl)C1 (stereo not given)	-2.49%
Cc1ncnc(N2CCCN(c3nc4ccccc4s3)CC2)c1C	7.7%
Cc1noc(C)c1CN1CC2(CCN(C(=O)c3cccn3C)C2)CC1=O (stereo not given)	-8.3%
COc1ccc(CNC2(Cc3cc(CC(C)C)on3)COC2)cc1	9.64%
Cc1cc(=O)[nH]c(-n2nc(C3CC3)cc2N)n1	29.2%
O=C1CO[C@H]2CN(S(=O)(=O)c3ccccc3)C[C@H]2N1Cc1ccccc1	-9.3%
CCCOc1cc(C)ccc1NC(=O)N(C)Cc1cnn(C)c1	-4.07%
COc1c(C)cnc(CN2CCOC(CNc3cccnn3)C2)c1C (stereo not given)	3.14%
Cn1c(CCNc2nccnc2C#N)nc2ccc(F)cc21	2.09%
O=C(NC[C@]12COC[C@H]1CN(CC1CCOCC1)C2)c1ccco1	-3.33%
COC(=O)N1CC[C@@]2(O)CCCC[C@H]2[C@@H]1c1ccc2c(c1)OCO2	-4.3%
O=C(NC1COC2(CCN(Cc3ccccn3)CC2)C1)c1ccccn1 (stereo not given)	3.59%
